Data from ChEMBL document CHEMBL3808315, “Discovery of Pyrazolopyridones as a Novel Class of Gyrase B Inhibitors Using Structure Guided Design” (ACS Med Chem Lett, 2016).
≈ marks a conversion by molar mass, not a printed value.

Columns and labels:
[1] = biological target: DNA gyrase subunit B (Staphylococcus aureus, UniProt P0A0K8); experiment: Inhibition of Staphylococcus aureus DNA gyraseB ATPase activity using linear pBR322 DNA substrate incubated for 30 mins by fluorescence polarization assay
[2] = system: Staphylococcus aureus; experiment: Antibacterial activity against methicillin-susceptible Staphylococcus aureus 42 incubated for 18 to 24 hrs by broth microdilution assay; type: functional
[3] = system: Enterococcus faecium; experiment: Antibacterial activity Enterococcus faecium ATCC 6569 incubated for 18 to 24 hrs by broth microdilution assay; type: functional
[4] = biological target: DNA topoisomerase 4 subunit B (Staphylococcus aureus, UniProt P0C1S7); experiment: Inhibition of Staphylococcus aureus DNA parE ATPase activity incubated for 30 mins by fluorescence polarization assay
[5] = system: Streptococcus pneumoniae; experiment: Antibacterial activity Streptococcus pneumoniae ATCC 6303 incubated for 18 to 24 hrs by broth microdilution assay; type: functional
[6] = system: Staphylococcus aureus; experiment: Antibacterial activity against ciprofloxacin/methicillin-resistant Staphylococcus aureus 1721 incubated for 18 to 24 hrs by broth microdilution assay; type: functional
[7] = system: Staphylococcus aureus; experiment: Antibacterial activity against methicillin-resistant Staphylococcus aureus 1118 incubated for 18 to 24 hrs by broth microdilution assay; type: functional

Row | IC50 [1] | MIC [2] | SMILES | also measured
1 | 51 nM | > 32 µg/mL | Cn1c(=O)ccc2c(-c3cnc(-c4cccnc4)s3)n[nH]c21 | –
2 | < 8 nM | 0.5 µg/mL (≈ 1.15 µM) | CCCn1c(=O)ccc2c(-c3cnc(-c4ccc(CN5CCOCC5)nc4)s3)n[nH]c21 | –
3 | 9 nM | 4 µg/mL (≈ 9.47 µM) | CCCn1c(=O)ccc2c(-c3cnc(-c4ccc(CN(CC)CC)nc4)s3)n[nH]c21 | –
4 | 13 nM | 2 µg/mL (≈ 4.05 µM) | CCCn1c(=O)ccc2c(-c3cnc(-c4ccc(C(=O)NCCN5CCOCC5)nc4)s3)n[nH]c21 | –
5 | 10 nM | 4 µg/mL (≈ 8.9 µM) | CCCn1c(=O)ccc2c(-c3cnc(-c4ccc(CN5CCN(C)CC5)nc4)s3)n[nH]c21 | –
6 | 564 nM | > 32 µg/mL | O=c1ccc2c(-c3cnc(-c4cccnc4)s3)n[nH]c2n1CCO | –
7 | 3350 nM | > 32 µg/mL | CCn1c(=O)c(C(=O)NC)cc2c(-c3cnc(-c4cccnc4)s3)n[nH]c21 | –
8 | 6 nM | 0.25 µg/mL (≈ 0.632 µM) | CCCn1c(=O)ccc2c(-c3nc(C(=O)OC)c(-c4cccnc4)s3)n[nH]c21 | –
9 | 15 nM | 0.5 µg/mL (≈ 1.31 µM) | CCCn1c(=O)ccc2c(-c3cnc(-c4ccc(N(C)C)nc4)s3)n[nH]c21 | –
10 | < 8 nM | 0.25 µg/mL (≈ 0.68 µM) | CCCn1c(=O)ccc2c(-c3cnc(-c4ccc(CO)nc4)s3)n[nH]c21 | –
11 | 35 nM | 2 µg/mL (≈ 5.93 µM) | CCn1c(=O)c(C)cc2c(-c3cnc(-c4cccnc4)s3)n[nH]c21 | –
12 | 3250 nM | – | Cc1cc(=O)[nH]c2[nH]nc(-c3cnc(-c4cccnc4)s3)c12 | –
13 | 192 nM | > 32 µg/mL | CCCn1c(=O)ccc2c(C3CCN(c4nc(C(=O)O)c(C)s4)CC3)n[nH]c21 | –
14 | 13 nM | 4 µg/mL (≈ 9.79 µM) | CCCn1c(=O)ccc2c(-c3nc(C(=O)N(C)C)c(-c4cccnc4)s3)n[nH]c21 | –
15 | 23 nM | 1 µg/mL (≈ 2.64 µM) | CCCn1c(=O)ccc2c(-c3cnc(-c4ccc(C(C)C)nc4)s3)n[nH]c21 | –
16 | 15 nM | 0.5 µg/mL (≈ 1.26 µM) | CCCn1c(=O)ccc2c(-c3cnc(-c4ccc(C(=O)OC)nc4)s3)n[nH]c21 | –
17 | 1320 nM | – | O=c1cc(-c2ccccc2)c2c(-c3cnc(-c4cccnc4)s3)n[nH]c2[nH]1 | –
18 | < 8 nM | 0.25 µg/mL (≈ 0.711 µM) | CCCn1c(=O)ccc2c(-c3cnc(-c4ccc(C)nc4)s3)n[nH]c21 | –
19 | 9 nM | 4 µg/mL (≈ 11.9 µM) | CCCn1c(=O)ccc2c(-c3ncc(-c4cccnc4)s3)n[nH]c21 | –
20 | 279 nM | > 32 µg/mL | CCCn1c(=O)ccc2c(-c3cncs3)n[nH]c21 | –
21 | 270 nM | > 32 µg/mL | O=c1ccc2c(-c3cnc(-c4cccnc4)s3)n[nH]c2[nH]1 | –
22 | 8 nM | 2 µg/mL (≈ 4.59 µM) | CCCn1c(=O)ccc2c(-c3cnc(-c4ccc(N5CCN(C)CC5)nc4)s3)n[nH]c21 | –
23 | 202 nM | > 32 µg/mL | CCn1c(=O)c(CO)cc2c(-c3cnc(-c4cccnc4)s3)n[nH]c21 | –
24 | 4 nM | 0.25 µg/mL (≈ 0.745 µM) | C=CCn1c(=O)ccc2c(-c3cnc(-c4cccnc4)s3)n[nH]c21 | –
25 | 8 nM | 2 µg/mL (≈ 4.9 µM) | CCCn1c(=O)ccc2c(-c3cnc(-c4ccc(C(=O)N(C)C)nc4)s3)n[nH]c21 | –
26 | < 8 nM | 1 µg/mL (≈ 2.09 µM) | CCCn1c(=O)ccc2c(-c3cnc(-c4ccc(C(=O)NCCN(CC)CC)nc4)s3)n[nH]c21 | –

Row | SMILES | IC50 [1] | MIC [2] | also measured
27 | CCn1c(=O)ccc2c(-c3cnc(-c4cccnc4)s3)n[nH]c21 | 20 nM | 2 µg/mL (≈ 6.18 µM) | MIC [3]: 4 µg/mL (≈ 12.4 µM); IC50 [4]: 746 nM; MIC [5]: 4 µg/mL (≈ 12.4 µM); MIC [6]: 4 µg/mL (≈ 12.4 µM); MIC [7]: 2 µg/mL (≈ 6.18 µM)
28 | CCCn1c(=O)ccc2c(-c3cnc(-c4cccnc4)s3)n[nH]c21 | 6 nM | 0.06 µg/mL (≈ 0.178 µM) | MIC [3]: 0.125 µg/mL (≈ 0.37 µM); IC50 [4]: 183 nM; MIC [5]: 0.25 µg/mL (≈ 0.741 µM); MIC [6]: 0.06 µg/mL (≈ 0.178 µM); MIC [7]: 0.06 µg/mL (≈ 0.178 µM)
29 | COc1c(N2C[C@@H]3CCCN[C@@H]3C2)c(F)cc2c(=O)c(C(=O)O)cn(C3CC3)c12 [MOXIFLOXACIN] | – | 0.06 µg/mL (≈ 0.149 µM) | –
